pIC50: −log10 of the molar value. Values joined by “and” are separate entries in the source; they are usually repeats but may differ in a detail not shown here. Equal entries are not always repeated.
Test system: 843126-344-R-J1-PDC complex spheroid viability
Test: Anticancer human tumor 843126-344-R-J1-PDC patient-derived melanoma cell line growth inhibition [POLQ]
Conditions: for viability, T/C: stronger effect = lower value
Protocol: Multicellular complex tumor spheroid response to Polymerase (POL) inhibitors (novobiocin, ART-558, RP6685) in combination with a variety of drugs and investigational agents in selected tumor cell lines
The POL inhibitors (novobiocin, ART-558, and RP6685) were evaluated both individually and in combination with standard of care and investigational anticancer small molecules within a complex spheroid model of solid tumors. . Complex spheroids include a stromal component modeled by human endothelial cells (HUVEC) and fibroblasts modeled by human mesenchymal stem cells (MSCs). The concentration ranges selected for each drug and investigational agent were based upon clinically achievable concentrations if the clinical Cmax of the agent was known.
Compounds. The drugs and investigational agents: novobiocin (NSC847541), ART-558 (NSC835418), RP-6685 (NSC848927), peposertib (NSC802822), ceralasertib (NSC780249), elimusertib (NSC800525), camonsertib (NSC841442), AZD-1390 (NSC803789), olaparib (NSC753686), talazoparib (NSC767125), rucaparib (NSC756644), sotorasib (NSC818433), MRTX-1133 (NSC836407), SN-38 (NSC673596), topotecan (NSC609699), epotoside (NSC141540), doxorubicin (NSC123127), gemcitabine (NSC613327), 5-fluorouracil (NSC19893), paclitaxel (NSC125973), vemurafenib (NSC761431), MSA-2 (NSC828583), SN-011 (NSC837082), adavosertib (NSC754352), prexasertib (NSC758257), carboplatin (NSC241240) and oxaliplatin (NSC266046), were obtained from the National Cancer Institute (NCI) Developmental Therapeutics Program Chemical Repository (21). The FDA-approved anticancer drug set is available from the Developmental Therapeutics Program at https://dtp.cancer.gov/organization/dscb/obtaining/. […] The stock solutions were prepared in dimethyl sulfoxide (DMSO, Sigma-Aldrich, St. Louis, MO, cat. D2650), except for the platinum compounds which were prepared in saline (Quality Biological, Gaithersburg, MD, cat. 114-055-101), at 800-fold the tested concentration and stored at -70 degrees C prior to their use. All drugs and investigational agents were tested over a range starting from a high concentration at or near the clinical Cmax and decreasing in half-log increments. If the clinical Cmax for an agent had not been determined, the highest concentration tested was 10 microM, except for SN-38, which was tested at a high concentration of 1 microM.
Cell Culture. All cells were maintained in an incubator at 37 degrees C and 5% CO2 with 95% humidity. The PDC lines were cultured according to standard operating procedures established by the NCI PDMR (https://pdmr.cancer.gov). Table 3 of the manuscript, lists the cell lines along with the number of the three cell types plated to form the mct-spheroids and media for tumor cell growth. After thawing, all PDC lines, except 997537-175-T-J1-PDC and 415267-285-R-J2-PDC, were cultured in Matrigel-coated flasks prepared with a working solution of 1X Ham's F-12 nutrient mix, without supplementation (Thermo Fisher Scientific, cat. 11765054), 100 U/mL penicillin-streptomycin (Thermo Fisher Scientific, cat. 15140122), and 2.5% Matrigel (Corning Inc., Corning, NY, cat. 354248) for the first three passages. The two PDC lines 997537-175-T-J1-PDC and 415267-285-R-J2-PDC were cultured on uncoated flasks. The 857933-349-R-J2-PDC line was cultured in 6C/Colon 1B media containing advanced DMEM/F-12 (Thermo Fisher Scientific, cat. 12634028), 10 mM HEPES (Thermo Fisher Scientific, cat. 15630080), 1X GlutaMAX supplement (Thermo Fisher Scientific, cat. 35050061), 0.1 mg/mL primocin (InvivoGen, San Diego, CA, cat. ant-pm-2), 10% defined fetal bovine serum, heat inactivated (HyClone Laboratories Inc., Logan, UT, cat. SH30070.03HI), 50% L-WRN conditioned media (ATCC, cat. CRL-3276), 1.25 mM N-Acetyl-L-cysteine (Sigma-Aldrich, cat. A9165), 10 mM nicotinamide (Sigma-Aldrich, cat. N0636), 1X B-27 supplement (Thermo Fisher Scientific, cat. 17504044), 1X N-2 supplement (Thermo Fisher Scientific, cat. […]

[1] = curve of first compound, second compound 0.0316 µM
[2] = curve of first compound, second compound 0.1 µM
[3] = curve of first compound, second compound 0.316 µM
[4] = curve of first compound, second compound 1 µM
[5] = curve of first compound, second compound 3.16 µM
[6] = curve of first compound, second compound 10 µM
[7] = second compound 0.0316 µM, first compound 0.0316 µM
[8] = second compound 0.0316 µM, first compound 0.1 µM
[9] = second compound 0.0316 µM, first compound 0.316 µM
[10] = second compound 0.0316 µM, first compound 1 µM
[11] = second compound 0.0316 µM, first compound 3.16 µM
[12] = second compound 0.0316 µM, first compound 10 µM
[13] = second compound 0.1 µM, first compound 0.0316 µM
[14] = second compound 0.1 µM, first compound 0.1 µM
[15] = second compound 0.1 µM, first compound 0.316 µM
[16] = second compound 0.1 µM, first compound 1 µM
[17] = second compound 0.1 µM, first compound 3.16 µM
[18] = second compound 0.1 µM, first compound 10 µM
[19] = second compound 0.316 µM, first compound 0.0316 µM
[20] = second compound 0.316 µM, first compound 0.1 µM
[21] = second compound 0.316 µM, first compound 0.316 µM
[22] = second compound 0.316 µM, first compound 1 µM
[23] = second compound 0.316 µM, first compound 3.16 µM
[24] = second compound 0.316 µM, first compound 10 µM
[25] = second compound 1 µM, first compound 0.0316 µM
[26] = second compound 1 µM, first compound 0.1 µM
[27] = second compound 1 µM, first compound 0.316 µM
[28] = second compound 1 µM, first compound 1 µM
[29] = second compound 1 µM, first compound 3.16 µM
[30] = second compound 1 µM, first compound 10 µM
[31] = second compound 3.16 µM, first compound 0.0316 µM
[32] = second compound 3.16 µM, first compound 0.1 µM
[33] = second compound 3.16 µM, first compound 0.316 µM
[34] = second compound 3.16 µM, first compound 1 µM
[35] = second compound 3.16 µM, first compound 3.16 µM
[36] = second compound 3.16 µM, first compound 10 µM
[37] = second compound 10 µM, first compound 0.0316 µM
[38] = second compound 10 µM, first compound 0.1 µM
[39] = second compound 10 µM, first compound 0.316 µM
[40] = second compound 10 µM, first compound 1 µM
[41] = second compound 10 µM, first compound 3.16 µM
[42] = second compound 10 µM, first compound 10 µM
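Wherever viability, T/C is given: spheroids exposed to drugs for seven days before readout.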

SMILES: CC(C)n1c(=O)n(C)c2cnc3cc(F)c(-c4ccc(OCCCN5CCCCC5)nc4)cc3c21
- viability, T/C (compound 0.0316 µM): 88.2% and 82.8% and 83.5%
- viability, T/C (compound 0.1 µM): 74.9% and 88.6% and 77.2%
- viability, T/C (compound 0.316 µM): 89% and 79.8% and 78.8%
- viability, T/C (compound 1 µM): 86.1% and 87.7% and 92.9%
- viability, T/C (compound 3.16 µM): 72.1% and 79.5% and 84.4%
- viability, T/C (compound 10 µM): 72.5% and 79.1% and 55.2%
- pIC50 (curve of compound): < 5.00

SMILES: O=c1[nH]cc(F)c(=O)[nH]1 + COC1C(OC(N)=O)C(O)C(Oc2ccc3c(O)c(NC(=O)c4ccc(O)c(CC=C(C)C)c4)c(=O)oc3c2C)OC1(C)C
- pIC50 [1]: < 5.00
- pIC50 [2]: < 5.00
- pIC50 [3]: < 5.00
- pIC50 [4]: < 5.00
- pIC50 [5]: < 5.00
- pIC50 [6]: < 5.00
- viability, T/C [7]: 97.9%
- viability, T/C [8]: 76.6%
- viability, T/C [9]: 91.9%
- viability, T/C [10]: 102%
- viability, T/C [11]: 99.3%
- viability, T/C [12]: 87.7%
- viability, T/C [13]: 99.2%
- viability, T/C [14]: 99%
- viability, T/C [15]: 102%
- viability, T/C [16]: 84.2%
- viability, T/C [17]: 82.7%
- viability, T/C [18]: 73.3%
- viability, T/C [19]: 92.4%
- viability, T/C [20]: 116%
- viability, T/C [21]: 89.5%
- viability, T/C [22]: 81.7%
- viability, T/C [23]: 75.3%
- viability, T/C [24]: 70.4%
- viability, T/C [25]: 76.6%
- viability, T/C [26]: 85.4%
- viability, T/C [27]: 80.3%
- viability, T/C [28]: 90.2%
- viability, T/C [29]: 92.8%
- viability, T/C [30]: 64.3%
- viability, T/C [31]: 94.2%
- viability, T/C [32]: 94.3%
- viability, T/C [33]: 89.7%
- viability, T/C [34]: 103%
- viability, T/C [35]: 75.2%
- viability, T/C [36]: 70.4%
- viability, T/C [37]: 78.8%
- viability, T/C [38]: 88.1%
- viability, T/C [39]: 93%
- viability, T/C [40]: 80.6%
- viability, T/C [41]: 94.3%
- viability, T/C [42]: 71.5%

SMILES: COc1cc(C2c3cc4c(cc3C(OC3OC5COC(C)OC5C(O)C3O)C3COC(=O)C23)OCO4)cc(OC)c1O (stereo not drawn)
- viability, T/C (compound 0.0316 µM): 82.2% and 114% and 91.2%
- viability, T/C (compound 0.1 µM): 95.3% and 90.7% and 102%
- viability, T/C (compound 0.316 µM): 90% and 97.6% and 83.3%
- viability, T/C (compound 1 µM): 90.9% and 79% and 81.2%
- viability, T/C (compound 3.16 µM): 58.2% and 68.9% and 66.3%
- viability, T/C (compound 10 µM): 50% and 52.2% and 41.9%
- pIC50 (curve of compound): < 5.00 and 5.17

SMILES: Nc1ccn(C2OC(CO)C(O)C2(F)F)c(=O)n1 (stereo not drawn) + Cc1cccc(N(C)C(=O)C2C(O)CCN2c2nc(C)cc(C(F)(F)F)c2C#N)c1
- pIC50 [1]: > 7.50
- pIC50 [2]: > 7.50
- pIC50 [3]: > 7.50
- pIC50 [4]: > 7.50
- pIC50 [5]: > 7.50
- pIC50 [6]: > 7.50
- viability, T/C [7]: 47.1%
- viability, T/C [8]: 50.2%
- viability, T/C [9]: 30.6%
- viability, T/C [10]: 45.5%
- viability, T/C [11]: 42.4%
- viability, T/C [12]: 43%
- viability, T/C [13]: 48.9%
- viability, T/C [14]: 44%
- viability, T/C [15]: 40.9%
- viability, T/C [16]: 51.4%
- viability, T/C [17]: 44.5%
- viability, T/C [18]: 32.9%
- viability, T/C [19]: 42.3%
- viability, T/C [20]: 45.2%
- viability, T/C [21]: 37.4%
- viability, T/C [22]: 44.8%
- viability, T/C [23]: 43.2%
- viability, T/C [24]: 38.3%
- viability, T/C [25]: 37.9%
- viability, T/C [26]: 44.5%
- viability, T/C [27]: 37.6%
- viability, T/C [28]: 47.7%
- viability, T/C [29]: 35.9%
- viability, T/C [30]: 41.5%
- viability, T/C [31]: 38.7%
- viability, T/C [32]: 43.6%
- viability, T/C [33]: 44%
- viability, T/C [34]: 49.3%
- viability, T/C [35]: 34.9%
- viability, T/C [36]: 36.6%
- viability, T/C [37]: 40.6%
- viability, T/C [38]: 41.6%
- viability, T/C [39]: 40.7%
- viability, T/C [40]: 45.1%
- viability, T/C [41]: 43.5%
- viability, T/C [42]: 37.8%
